From patent US20230416268A1, “PYRIMIDINONE-CONTAINING 17-BETA-HYDROXYSTEROID DEHYDROGENASE TYPE 13 INHIBITORS” (ENANTA PHARMACEUTICALS, INC., priority 2022, published 2023)

target: Recombinant human 17β-HSD13 (Homo sapiens (Human), UniProt Q7Z5P4); assay: 17β-HSD13 rapid-fire mass spectrometry assay (RF/MS assay); format: biochemical; details: HSD17B13 80 nM, LTB4 10 μM, NAD+ 0.5 mM, RT 3 h, RF/MS readout
Protocol: 17β-HSD13 rapid-fire mass spectrometry assay (RF/MS assay). Recombinant human 17β-HSD13 was expressed and purified from sf9 cells at Charles River Labs (Saffron Walden, UK). […] The assays were quenched by adding 20 μL of 0.15% aqueous formic acid and the plates were frozen at −80° C. RF/MS analysis was performed at PureHoney Technologies (Billerica, MA) on a RapidFire RF300 system (Agilent Technologies, Inc.) coupled to an API 4000 triple quadrupole mass spectrometer (Sciex) equipped with Agilent RapidFire cartridge type A (C4). The mobile phase was 0.09% formic acid and 0.01% trifluoracetic acid in water (Buffer A) and 0.09% formic acid and 0.01% trifluoracetic acid in 80% aqueous acetonitrile (Buffer B). The RapidFire method conditions were the following: 250 ms aspirate, 3000 ms load/desalt, 4000 ms elute, and 500 ms re-equilibrate. RF-MS/MS was performed in negative polarity (−4500 V), the source temperature was 650° C., and gas 1 and gas 2 settings for nitrogen were set to 50. The curtain gas and collision gas were also nitrogen and were set to 20 and 12, respectively.
Data Analysis. 17β-HSD13 enzyme activity was measured as percent conversion of extracted ion counts and normalized to high and low controls to determine percent residual activity at various concentrations of test compounds. Data were fitted to normalized activity (variable slope) versus concentration fit in GraphPad Prism 7 to determine IC50. All experiments were run in duplicates.

Chain of Recombinant human 17β-HSD13 (Q7Z5P4 20-300): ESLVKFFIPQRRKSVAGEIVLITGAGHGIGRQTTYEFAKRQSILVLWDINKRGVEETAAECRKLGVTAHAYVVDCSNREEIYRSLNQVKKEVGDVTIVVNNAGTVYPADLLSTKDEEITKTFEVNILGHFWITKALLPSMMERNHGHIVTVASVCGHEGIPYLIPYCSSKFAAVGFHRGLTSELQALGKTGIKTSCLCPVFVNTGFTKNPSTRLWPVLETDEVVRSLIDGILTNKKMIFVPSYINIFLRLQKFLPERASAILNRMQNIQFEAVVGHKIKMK

SMILES	IC50
COc1ccc(-c2nc3sc4c(O)cccc4c3c(=O)n2C/C=C/CSc2ccccc2)c(C2CC2)c1 [Example 52]	0.1 to 1 µM
COc1ccc(-c2nc3sc4c(O)cccc4c3c(=O)n2Cc2ccccc2)c(C2CC2)c1 [Example 9]	< 0.1 µM
COc1ccc(-c2nc3sc4c(O)cccc4c3c(=O)n2CCNCc2cn[nH]c2)c(C2CC2)c1 [Example 30]	< 0.1 µM
COc1ccc(-c2nc3sc4c(OC(C)=O)cccc4c3c(=O)n2Cc2cnco2)c(C2CC2)c1 [Example 1, 2-(2-cyclopropyl-4-methoxyphenyl)-3-(oxazol-5-ylmethyl)-4-oxo-3,4-dihydrobenzo[4,5]thieno[2,3-d]pyrimidin-8-yl acetate]	0.1 to 1 µM
CC(C)(C)c1ccc(-c2nc3sc4c(O)cccc4c3c(=O)n2Cc2ccccc2)cc1 [Example 5]	> 10 µM
COc1ccc(-c2nc3sc4c(OC(=O)[C@H](C)N)cccc4c3c(=O)n2Cc2cncs2)c(C2CC2)c1 [Example 33]	< 0.1 µM
COc1ccc(-c2nc3sc4c(O)cccc4c3c(=O)n2CCNCc2cnccn2)c(C2CC2)c1 [Example 28]	< 0.1 µM
COc1ccc(-c2nc3sc4c(O)cccc4c3c(=O)n2CCNCc2cccnc2)c(C2CC2)c1 [Example 23]	< 0.1 µM
COc1ccc(-c2nc3sc4c(O)cccc4c3c(=O)n2CCOC(=O)N2CCOCC2)c(C2CC2)c1 [Example 35]	< 0.1 µM
COc1ccc(-c2nc3sc4c(O)cccc4c3c(=O)n2CC2CC2)c(C2CC2)c1 [Example 59]	0.1 to 1 µM
COc1ccc(-c2nc3sc4c(O)ccc(Cl)c4c3c(=O)n2Cc2cnco2)c(C2CC2)c1 [Example 91]	< 0.1 µM
COc1ccc(-c2nc3sc4c(O)cccc4c3c(=O)n2Cc2ccnc(Cl)c2)c(C2CC2)c1 [Example 13]	< 0.1 µM
COc1ccc(-c2nc3sc4c(O)cccc4c3c(=O)n2CC(F)(F)F)c(C2CC2)c1 [Example 58]	0.1 to 1 µM
COc1ccc(-c2nc3sc4c(O)cccc4c3c(=O)n2C/C=C/COC(=O)N(C)C)c(C2CC2)c1 [Example 36]	< 0.1 µM
COc1ccc(-c2nc3sc4c(OP(=O)(O)O)cccc4c3c(=O)n2Cc2nnn(C)n2)c(C2CC2)c1 [Example 71]	1 to 10 µM
O=c1c2c(nc(-c3ccc(F)cc3C3CC3)n1CCn1cnnc1)sc1c(O)cccc12 [Example 78]	0.1 to 1 µM
COc1ccc(-c2nc3sc4c(O)cccc4c3c(=O)n2CCNCc2ccccn2)c(C2CC2)c1 [Example 22]	< 0.1 µM
CCC(=O)Oc1cccc2c1sc1nc(-c3ccc(OC)cc3C3CC3)n(Cc3cnco3)c(=O)c12 [Example 2, 2-(2-cyclopropyl-4-methoxyphenyl)-3-(oxazol-5-ylmethyl)-4-oxo-3,4-dihydrobenzo[4,5]thieno[2,3-d]pyrimidin-8-yl propionate]	< 0.1 µM
COc1ccc(-c2nc3sc4c(O)cccc4c3c(=O)n2CCNS(=O)(=O)c2ccc(F)cc2)c(C2CC2)c1 [Example 50]	0.1 to 1 µM
CCn1c(-c2ccc(OC)cc2C2CC2)nc2sc3c(O)cccc3c2c1=O [Example 56]	< 0.1 µM
COc1ccc(-c2nc3sc4c(OC(=O)C(C)(C)C)cccc4c3c(=O)n2Cc2cnco2)c(C2CC2)c1 [Example 89]	> 10 µM
COc1ccc(-c2nc3sc4c(O)cccc4c3c(=O)n2Cc2cnco2)c(C2CC2)c1 [Example 64]	< 0.1 µM

SMILES	IC50
O=c1c2c(nc(-c3ccc4c(c3)OCO4)n1Cc1ccccc1)sc1c(O)cccc12 [Example 6]	> 10 µM
COc1ccc(-c2nc3sc4c(O)cccc4c3c(=O)n2C/C=C/CO)c(C2CC2)c1 [Example 43]	< 0.1 µM
COc1ccc(-c2nc3sc4c(O)cccc4c3c(=O)n2CCN(C)C)c(C2CC2)c1 [Example 25]	< 0.1 µM
O=c1c2c(nc(-c3ccc(F)cc3C3CC3)n1CCn1ccc(C3CC3)n1)sc1c(O)cccc12 [Example 72]	0.1 to 1 µM
COc1ccc(-c2nc3sc4c(O)cccc4c3c(=O)n2Cc2cncs2)c(C2CC2)c1 [Example 15]	< 0.1 µM
COc1ccc(-c2nc3sc4c(O)cccc4c3c(=O)n2CCN2CCNCC2)c(C2CC2)c1 [Example 19]	< 0.1 µM
O=c1c2c(nc(-c3ccc(F)cc3C3CC3)n1CCn1ccnn1)sc1c(O)cccc12 [Example 80]	< 0.1 µM
CC(C)Oc1ccc(-c2nc3sc4c(O)cccc4c3c(=O)n2Cc2ccno2)c(C2CC2)c1 [Example 82]	< 0.1 µM
CCc1ncc(Cn2c(-c3ccc(OC)cc3C3CC3)nc3sc4c(O)cccc4c3c2=O)s1 [Example 61]	0.1 to 1 µM
COc1ccc(-c2nc3sc4c(O)cccc4c3c(=O)n2C)c(C2CC2)c1 [Example 53]	< 0.1 µM
COc1ccc(-c2nc3sc4c(O)cccc4c3c(=O)n2CCN2CCOCC2)c(C2CC2)c1 [Example 17]	< 0.1 µM
COc1ccc(-c2nc3sc4c(O)cccc4c3c(=O)n2CCN(C)Cc2ccncc2)c(C2CC2)c1 [Example 26]	< 0.1 µM
O=c1c2c(nc(-c3ccc(F)cc3C3CC3)n1CCCc1nccs1)sc1c(O)cccc12 [Example 84]	< 0.1 µM
CCCn1c(-c2ccc(OC)cc2C2CC2)nc2sc3c(O)cccc3c2c1=O [Example 57]	0.1 to 1 µM
COc1ccc(-c2nc3sc4c(O)cccc4c3c(=O)n2Cc2csc(C)n2)c(C2CC2)c1 [Example 62]	< 0.1 µM
CC(C)Oc1ccc(-c2nc3sc4c(O)cccc4c3c(=O)n2Cc2cnco2)c(C2CC2)c1 [Example 83]	< 0.1 µM
COc1ccc(-c2nc3sc4c(O)cccc4c3c(=O)n2C/C=C/CN(C)C)c(C2CC2)c1 [Example 55]	> 10 µM
COc1ccc(-c2nc3sc4c(O)cccc4c3c(=O)n2Cc2cc(C)no2)c(C2CC2)c1 [Example 66]	< 0.1 µM
COc1ccc(-c2nc3sc4c(O)cccc4c3c(=O)n2CCNC(=O)c2ccncc2)c(C2CC2)c1 [Example 38]	0.1 to 1 µM
COc1ccc(-c2nc3sc4c(O)cccc4c3c(=O)n2CCNCc2cncs2)c(C2CC2)c1 [Example 32]	< 0.1 µM
O=c1c2c(nc(-c3ccc(F)cc3C3CC3)n1CCCc1nc3ccccc3s1)sc1c(O)cccc12 [Example 85]	< 0.1 µM
COC(=O)NCCn1c(-c2ccc(OC)cc2C2CC2)nc2sc3c(O)cccc3c2c1=O [Example 45]	0.1 to 1 µM

SMILES	IC50
O=c1c2c(nc(-c3ccccc3C3CC3)n1Cc1cncs1)sc1c(O)cccc12 [Example 47]	< 0.1 µM
COc1ccc(-c2nc3sc4c(O)cccc4c3c(=O)n2CCNCc2nnnn2C)c(C2CC2)c1 [Example 40]	< 0.1 µM
O=c1c2c(nc(-c3ccc4c(c3)OCCO4)n1Cc1ccccc1)sc1c(O)cccc12 [Example 4]	0.1 to 1 µM
O=c1c2c(nc(-c3ccc(F)cc3C3CC3)n1Cc1ccno1)sc1c(O)cccc12 [Example 68]	< 0.1 µM
COc1ccc(-c2nc3sc4c(O)cccc4c3c(=O)n2CCN2CCCCC2)c(C2CC2)c1 [Example 20]	< 0.1 µM
COc1ccc(-c2nc3sc4c(O)cccc4c3c(=O)n2CCNCc2nnn(C)n2)c(C2CC2)c1 [Example 41]	< 0.1 µM
COc1ccc(-c2nc3sc4c(O)cccc4c3c(=O)n2CCN(C)Cc2cccnc2)c(C2CC2)c1 [Example 27]	< 0.1 µM
COc1ccc(-c2nc3sc4c(OC(=O)c5ccccc5)cccc4c3c(=O)n2Cc2cnco2)c(C2CC2)c1 [Example 3, 2-(2-cyclopropyl-4-methoxyphenyl)-3-(oxazol-5-ylmethyl)-4-oxo-3,4-dihydrobenzo[4,5]thieno[2,3-d]pyrimidin-8-yl benzoate]	0.1 to 1 µM
O=c1c2c(nc(-c3ccc(F)cc3C3CC3)n1Cc1cc(C(F)(F)F)no1)sc1c(O)cccc12 [Example 77]	< 0.1 µM
O=c1c2c(nc(-c3ccc(F)cc3C3CC3)n1Cc1cnoc1)sc1c(O)cccc12 [Example 70]	< 0.1 µM
CCOC(=O)C1CC1Cn1c(-c2ccc(OC)cc2C2CC2)nc2sc3c(O)cccc3c2c1=O (stereo not drawn) [Example 51]	< 0.1 µM
COc1ccc(-c2nc3sc4c(O)cccc4c3c(=O)n2CCN2CCN(C)CC2)c(C2CC2)c1 [Example 18]	< 0.1 µM
COc1ccc(-c2nc3sc4c(O)cccc4c3c(=O)n2Cc2nnn(C)n2)c(C2CC2)c1 [Example 16]	< 0.1 µM
COc1ccc(-c2nc3sc4c(OC(=O)C(C)C)cccc4c3c(=O)n2Cc2cnco2)c(C2CC2)c1 [Example 88]	1 to 10 µM
COc1ccc(-c2nc3sc4c(O)cccc4c3c(=O)n2CCNCc2cnc(OC)nc2)c(C2CC2)c1 [Example 29]	< 0.1 µM
COc1ccc(-c2nc3sc4c(O)cccc4c3c(=O)n2CCN2CCC(O)CC2)c(C2CC2)c1 [Example 24]	< 0.1 µM
CC(C)Oc1ccccc1-c1nc2sc3c(O)cccc3c2c(=O)n1Cc1cncs1 [Example 49]	< 0.1 µM
O=c1c2c(nc(-c3ccc(F)cc3C3CC3)n1Cc1cnco1)sc1c(O)cccc12 [Example 69]	< 0.1 µM
COc1ccc(-c2nc3sc4c(O)cccc4c3c(=O)n2Cc2ccccc2)c(Br)c1 [Example 8]	0.1 to 1 µM
COc1ccc(-c2nc3sc4c(O)cccc4c3c(=O)n2C/C=C/C(=O)N(C)C)c(C2CC2)c1 [Example 42]	< 0.1 µM
COc1ccc(-c2nc3sc4c(O)cccc4c3c(=O)n2Cc2ccno2)c(C2CC2)c1 [Example 63]	< 0.1 µM
COc1ccc(-c2nc3sc4c(O)cccc4c3c(=O)n2Cc2ccnc(C)c2)c(C2CC2)c1 [Example 12]	< 0.1 µM
